Laboratory results taken from patent US6767909B2, “Compounds useful for treatment or prevention of disease mediated by alpha-2B-adrenoceptor” (Oy Juvantia Pharma Ltd., priority 2001, dated 2004).

Key:
[1] = biological target: T1, human alpha-2C-adrenoceptor (Homo sapiens, UniProt P18825); test: Antagonist activity: inhibition of epinephrine-stimulated 35S-GTPγS binding; format: biochemical; conditions: Mean ± SEM; CHO cell membranes, human α2C; 5 μM epinephrine; read-out: KB alpha-2C antagonist effect
T1 construct: expressed in transfected cells
T1 sequence (P18825 1-462): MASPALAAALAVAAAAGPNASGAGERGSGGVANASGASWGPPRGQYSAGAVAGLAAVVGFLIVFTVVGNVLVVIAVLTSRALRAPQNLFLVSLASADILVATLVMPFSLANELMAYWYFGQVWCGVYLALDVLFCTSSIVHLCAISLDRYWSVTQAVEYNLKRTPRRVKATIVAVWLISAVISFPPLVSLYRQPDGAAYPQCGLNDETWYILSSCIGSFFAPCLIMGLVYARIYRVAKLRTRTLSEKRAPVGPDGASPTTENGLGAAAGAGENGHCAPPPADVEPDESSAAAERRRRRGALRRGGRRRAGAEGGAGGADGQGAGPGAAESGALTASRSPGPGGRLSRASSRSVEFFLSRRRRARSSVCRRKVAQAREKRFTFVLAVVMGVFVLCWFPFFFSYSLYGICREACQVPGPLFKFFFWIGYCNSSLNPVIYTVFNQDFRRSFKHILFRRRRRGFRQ
Protocol: (§1) Antagonist Activity on Human Alpha-2-adrenoceptor Subtypes
(§2) After 30 min at room temperature, incubations were terminated by rapid vacuum filtration through GF/B glass fiber filter and three 5 ml washes with ice-cold incubation buffer. The filters were then dried, impregnated with scintillate and their radioactivity was measured by scintillation counting. The analysis of the experiments was carried out by non-linear least square curve fitting. […] Experiments were repeated a minimum of three times. to the incubation mixture. After an additional 60 min at room temperature, the incubation was terminated by rapid vacuum filtration through glass fibre filter. Filters were washed three times with 5 ml ice cold wash buffer (20 mM Tris, 5 mM MgCl2, 1 mM EDTA pH 7.4 at room temperature), dried and counted for radioactivity in a scintiallation counter. Analysis of experiments was carried out by non-linear least square fitting. Results are based on a minimum of three experiments.

[2] = biological target: T2, human alpha-2B-adrenoceptor (Homo sapiens, UniProt P18089); test: as above; format: biochemical; conditions: Mean ± SEM; CHO cell membranes, human α2B; 15 μM epinephrine; read-out: KB alpha-2B antagonist effect
T2 construct: expressed in transfected cells
T2 sequence (P18089 1-450): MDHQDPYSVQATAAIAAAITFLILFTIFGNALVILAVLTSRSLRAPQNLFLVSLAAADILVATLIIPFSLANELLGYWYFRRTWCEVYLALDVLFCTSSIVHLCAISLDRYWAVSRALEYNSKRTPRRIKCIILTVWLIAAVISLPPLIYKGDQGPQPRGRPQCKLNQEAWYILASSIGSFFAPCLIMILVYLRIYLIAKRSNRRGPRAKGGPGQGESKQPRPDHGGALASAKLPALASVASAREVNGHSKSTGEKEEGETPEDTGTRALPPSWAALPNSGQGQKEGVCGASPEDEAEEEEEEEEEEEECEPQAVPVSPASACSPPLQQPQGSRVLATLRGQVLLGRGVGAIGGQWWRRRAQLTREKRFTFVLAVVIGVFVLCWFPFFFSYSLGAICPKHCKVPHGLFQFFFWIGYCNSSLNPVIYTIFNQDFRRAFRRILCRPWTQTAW
Protocol: as §1, §2

[3] = biological target: T1, human alpha-2C-adrenoceptor; test: Human alpha-2-adrenoceptor binding affinity, 3H-rauwolscine competition binding; conditions: Mean ± SEM, membranes of Shionogi S115 cells transfected with human α2C
Protocol: (§3) Results expressed in the form of “>” means that no numerical values for Ki's could be established due to lack of displacement or due to incomplete competition curves.
(§4) Human Alpha-2-adrenoceptor Binding Affinity
as §2

[4] = biological target: T2, human alpha-2B-adrenoceptor; test: as above; conditions: Mean ± SEM, membranes of Shionogi S115 cells transfected with human α2B
Protocol: as §3, §4, §2

[5] = biological target: T3, human alpha-2A-adrenoceptor (Homo sapiens, UniProt P08913); test: as above; conditions: Mean ± SEM, membranes of Shionogi S115 cells transfected with human α2A
T3 construct: expressed in transfected cells
T3 sequence (P08913 1-465): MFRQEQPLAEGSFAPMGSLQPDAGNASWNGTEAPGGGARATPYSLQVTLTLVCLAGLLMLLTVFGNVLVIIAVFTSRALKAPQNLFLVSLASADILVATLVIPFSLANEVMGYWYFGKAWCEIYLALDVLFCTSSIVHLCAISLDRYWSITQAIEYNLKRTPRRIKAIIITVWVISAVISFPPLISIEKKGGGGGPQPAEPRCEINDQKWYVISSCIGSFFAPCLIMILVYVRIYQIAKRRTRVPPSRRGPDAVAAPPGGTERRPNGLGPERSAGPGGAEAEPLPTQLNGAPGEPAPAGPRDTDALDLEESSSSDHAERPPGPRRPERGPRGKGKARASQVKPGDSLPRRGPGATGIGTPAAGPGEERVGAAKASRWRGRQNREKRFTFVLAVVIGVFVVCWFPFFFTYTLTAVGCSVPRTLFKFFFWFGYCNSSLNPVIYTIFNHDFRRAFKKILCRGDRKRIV
Protocol: as §3, §4
(§5) After 30 min at room temperature, incubations were terminated by rapid vacuum filtration through GF/B glass fiber filter and three 5 ml washes with ice-cold incubation buffer. The filters were then dried, impregnated with scintillate and their radioactivity was measured by scintillation counting. The analysis of the experiments was carried out by non-linear least square curve fitting. Experimentally determined IC50 values were converted to Ki's by making use of the Cheng-Prusoff equation (Cheng and Prusoff, 1973). Experiments were repeated a minimum of three times. to the incubation mixture. After an additional 60 min at room temperature, the incubation was terminated by rapid vacuum filtration through glass fibre filter. Filters were washed three times with 5 ml ice cold wash buffer (20 mM Tris, 5 mM MgCl2, 1 mM EDTA pH 7.4 at room temperature), dried and counted for radioactivity in a scintiallation counter. Analysis of experiments was carried out by non-linear least square fitting. Results are based on a minimum of three experiments.

[6] = biological target: T3, human alpha-2A-adrenoceptor; test: Antagonist activity: inhibition of epinephrine-stimulated 35S-GTPγS binding; format: biochemical; conditions: Mean ± SEM; CHO cell membranes, human α2A; 5 μM epinephrine; read-out: KB alpha-2A antagonist effect
Protocol: as §1
Membranes (2-6 μg of protein per sample) and 12 concentrations of test compound were preincubated for 30 min with a fixed concentration fo epinephrine (5 μM for α2A, 15 μM for α2B, 5 μM for α2C) in 50 mM Tris, 5 mM MgCl2, 150 mM NaCl, 1 mM DTT, 1 mM EDTA, 10 μM GDP, 30 μM ascorbic acid, pH 7.4 at room temperature. Binding of radiolabel was started by the addition of trace amounts of ^35S-GTPγS (0.08-0.15 nM, specific activity 1250 Ci/mmol)
as §5

CCn1cc(CNc2ccc(S(=O)(=O)Nc3nc(C)cc(C)n3)cc2)c2ccccc21 [Compound F, N-(4,6-Dimethylpyrimidin-2-yl)-4-[(1-ethyl-1H-indol-3-ylmethyl)-amino]-benzenesulfonamide]
Kb [1]: 12 ± 2 µM
Kb [2]: 0.24 ± 0.06 µM
Ki [3]: > 10 µM
Ki [4]: 0.043 ± 0.007 µM
Ki [5]: > 4.3 µM
Kb [6]: 8.7 ± 1.1 µM

Cc1cc(C)nc(NS(=O)(=O)c2ccc(NCc3c(Cl)cccc3Cl)cc2)n1 [Compound C, 4-(2,6Dichlorobenzylamino)-N-(4,6-dimethylpyrimidin-2-yl)-benzenesulfonamide]
Kb [1]: 6.3 ± 1.4 µM
Ki [3]: > 10 µM
Ki [5]: 2 ± 0.4 µM
Kb [6]: 5.4 ± 1.4 µM

Cc1cc(C)nc(NS(=O)(=O)c2ccc(NC(c3ccccc3)c3ccccc3)cc2)n1 [Compound H, 4-(Benzhydrylamino)-N-(4,6-dimethylpyrimidin-2-yl)-benzenesulfonamide]
Ki [3]: > 30 µM
Ki [4]: 8 ± 0.5 µM
Ki [5]: > 30 µM

Cc1cc(C)nc(NS(=O)(=O)c2ccc(NCc3nc4ccccc4n3CC(C)C)cc2)n1 [Compound A, N-(4,6-Dimethylpyrimidin-2-yl)-4-[(1-isobutyl-1H-benzimidazol-2-ylmethyl)-amino]-benzenesulfonamide]
Ki [3]: > 30 µM
Ki [4]: 0.16 ± 0.02 µM
Ki [5]: > 13 µM

Cc1cc(C)nc(NS(=O)(=O)c2ccc(NCc3ccc4ccccc4c3)cc2)n1 [Compound D, N-(4,6-Dimethylpyrimidin-2-yl)-4-[(naphthalen-2-ylmethyl)-amino]-benzenesulfonamide]
Ki [3]: > 10 µM
Ki [4]: 0.44 ± 0.07 µM
Ki [5]: > 10 µM

Cc1cc(C)nc(NS(=O)(=O)c2ccc(NCc3ccccc3C)cc2)n1 [Compound B, N-(4,6-Dimethylpyrimidin-2-yl)-4-(2-methylbenzylamino)-benzenesulfonamide]
Kb [1]: 5.7 ± 0.7 µM
Kb [2]: 0.075 ± 0.009 µM
Ki [3]: > 10 µM
Ki [4]: 0.034 ± 0.002 µM
Ki [5]: > 4.5 µM
Kb [6]: 14.5 ± 3.6 µM

COc1cccc(CNc2ccc(S(=O)(=O)Nc3nc(C)cc(C)n3)cc2)c1 [Compound E, N-(4,6-Dimethylpyrimidin-2yl-)4(3-methoxybenzylamino)-benzenesulfonamide]
Kb [1]: 7.3 ± 1.1 µM
Kb [2]: 0.029 ± 0.005 µM
Ki [3]: > 10 µM
Ki [4]: 0.02 ± 0.004 µM
Ki [5]: > 5.1 µM
Kb [6]: 7.9 ± 3.1 µM

COc1ccccc1CCNc1ccc(S(=O)(=O)Nc2nc(C)cc(C)n2)cc1 [Compound G, N-(4,6-Dimethylpyrimidin-2-yl)-4-[2-(2-methoxyphenyl)-ethylamino]-benzenesulfonamide]
Kb [1]: 4.7 ± 1.8 µM
Kb [2]: 0.086 ± 0.064 µM
Ki [3]: > 10 µM
Ki [4]: 0.032 ± 0.005 µM
Ki [5]: 2.2 ± 0.6 µM
Kb [6]: 3.2 ± 0.5 µM
